# Patent US20100278896A1, “SOLID COMPOSITIONS” (UCL BUSINESS PLC, priority 2007, published 2010)
# Key:
# [1] = Engalytcheff et al. 2004; cited from earlier work
# [2] = tested on: Human Tenon's fibroblasts (HTF); settings: cited from earlier work; for contraction of HTF populated collagen gels: dose-dependent, Daniels et al., 2003
# [3] = tested on: Human Tenon's fibroblasts (HTF); assay: Contraction of HTF collagen I gels (in vitro contraction model); format: cell-based; settings: for Contraction (%) of HTF collagen I gels: media without DMSO; for Contraction (%) of HTF collagen I gels, Average / Contraction (%) of HTF collagen I gels, Group 1 / Contraction (%) of HTF collagen I gels, Group 2 / Contraction (%) of HTF collagen I gels, Group 3 / Contraction (%) of HTF collagen I gels, Group 4: 2nd in vitro experiment
# Experimental: Human Tenon's fibroblasts (HTF) were used for in vitro cultures. These cells are involved in subconjunctival scarring. The process of HTF isolation and proliferation was performed by using 0.5 cm^3 tissue explants from donor eyes obtained from Moorfields Hospital Eye Bank under the Tenets of the Declaration of Helsinki (1989). Explants of 0.5 cm^3 were kept for two hours in the bottom of 25 cm^3 flasks, with a coverslip placed over them. Each flask contained 5 ml of normal culture medium consisting of Dulbecco's modified Eagle's Medium (DMEM) with 10% fetal calf serum, 2 mM L-glutamine, 100 U/ml penicillin, […] gentamicin, 100 μg/ml streptomycin and 0.25 μg/ml amphotericin. The flasks were placed in incubators at 37° C. and 5% humidified CO2 in air. The culture medium was changed every 3 days and when they became confluent, usually within one month, they were passaged into new flasks for direct experimental use or were stored in liquid nitrogen.
# After the HTFs reached confluence, the culture medium was aspirated and the monolayer was washed with 1 ml of trypsin 1× (Gibco) and the trypsin was quickly aspirated for about 15 seconds. Next, 2 ml of trypsin 1× (Gibco) were added to each flask and HTFs were detached from the flasks by incubation for 2 minutes at 37° C. and 5% humidified CO2 in air. After confirming by phase contrast microscopy using a Leica microscope with ×10 magnification that the cells had been detached from the bottom of the flask and that they had obtained a round shape, 2 ml of cell culture medium were added to neutralise the trypsinisation. The cell suspension was transferred to a 15 ml centrifuge tube (STARLAB GMBH) and was centrifuged at 1600 rpm for 5 minutes. The cell pellet was then resuspended in 10 ml of cell culture medium and was divided into 4 different 75 cm^3 flasks (1:4 expansion). In each flask 7.5 ml of cell culture medium were added. Flasks were placed in incubators at 37° C. and 5% humidified CO2 in air and the culture media was changed every three days. The time that was required from passage to passage in order to reach confluence was 1 week on average.
# With a Neubauer plate, 6.2×10^4 HTF were counted and then were resuspended in 170 μl FBS in a 50 ml universal tube. Concentrated medium (160 μl) was added (stock solution consisting of 3.5 ml DMEM (×10 stock), 0.35 ml glutamine (2 mM stock) and 0.9 ml sodium bicarbonate (7.5% stock). 830 μl of First Link type I collagen solution collagen (stock 2.2 mg/ml in 0.6% acetic acid) were then added and the solution was mixed by swirling to avoid air bubbles. Sterile 1M NaOH (75-80 μl) was rapidly added to change the acidic pH of the solution. This caused the solution to turn a pink colour without reverting back to yellow. Quickly 150 μl collagen gel solution was cast into the wells of Mattek dishes making sure to cast the gel to the edges of the central groove using the pipette tip. Creation of air bubbles when ejecting the gel from the tip should be avoided. If air bubbles were formed, they were aspirated out. Usually, from a 1.2 ml gel suspension, 6 gels can easily be cast. Following this process, the wells of Makket dishes with the gels were placed in incubator to set for at least 10-15 min (up to 30 mins). Gels were detached from the edges of the central groove using yellow tips and excess unpolymerised solution was aspirated off. Two milliliters of cell culture medium were added and the dishes were placed in incubators at 37° C. and 5% humidified CO2 in air; the medium was replaced every 3 days.
# Generally solid Ilomastat is diluted into DMSO before being added into the media, however in this experiment Ilomastat could be directly dissolved in the normal media without DMSO. […] The concentration of both samples was then confirmed by HPLC.
# To compare with irradiated Ilomastat, experiments were conducted with three different treatment groups of collagen gels. Each treatment group had 3 collagen I gels with HTFs. […]
# [4] = Comparison of irradiated and non-irradiated product (gamma radiation, HPLC)
# [5] = Tablet release in flow rig, pH 7.6 aqueous solution, 37° C., flow rate 2 μl/min, HPLC; format: physicochemical
# Experimental: To obtain some indication of release kinetics, flow rigs of 50-200 μl capacity were used to model the bleb. An Ilomastat tablet (one tablet per rig) was placed into the flow chamber. Two tubes are connected to each rig: one was connected to a peristaltic pump to introduce an aqueous solution and the other tube allowed the removal of the solution out of the rig. Flow rates were used to model the flow of the aqueous solution into and out from the subconjunctival space to the scleral veins.
# A range of flow rates was used in the rig experiments; however, in most of the experiments a flow rate of 2 μl/min was used to simulate the aqueous flow rate in the bleb. To further simulate the actual conditions in the eye, the aqueous solution used was maintained at pH 7.4-7.6 (as this is the pH of normal human aqueous humor) and the temperature was maintained at 37° C. The aqueous solution that was prepared using Oxoid® Phosphate Buffered Saline Tablets (one tablet for every 100 ml of de-ionized water). The PBS tablets were dissolved in de-ionized water and the pH was adjusted to 7.6. The aqueous solution was kept at 37° C.
# The mobile phase was prepared as follows. […] When the pH was adjusted, de-ionized water was added to make the buffer volume of 1000 ml. Aliquots of each sample (0.1 ml) were transferred to HPLC vials that were then placed in the HPLC auto-sampler. […] Three injections (10 μl each) for each time point were evaluated. A computer was connected with the UV detector and with the use of the programme Chrom+, the peak area was analyzed to determine the amount of Ilomastat. […] The average of the three measurements was used to determine the amount of Ilomastat. […]
# As indicated above, a tablet of solid 5-FU was fabricated using the same technique as described above. The dissolution rate of the tablet was then determined using the same rig as described above.
# Each tablet was placed into the rig as described above and liquid samples analysed by HPLC and concentration of 5-FU was determined using the calibration curve. […]
# [6] = Dissolution of Ilomastat in pH 7.6 aqueous solution without DMSO; format: physicochemical
# Experimental: The curve was created as follows. […] The stock solution was then diluted in individual containers to give six other solutions with the following concentrations: 80 μM, 60 μM, 40 μM, 20 μM, 10 μM and 5 μM. Each solution was then evaluated three times by HPLC and the absorbance was determined.
# A standard tablet punch and die and a press with an applied a pressure of five bars were used.
# [7] = tested on: rabbit bleb after trabeculectomy; settings: 17 injections in DMSO, 30 days, vs DMSO only control; cited from earlier work
structure (smiles),measurement,setting,value
C[C@H](CS)C(=O)N1CCC[C@H]1C(=O)O [Captopril],degradation caused from irradiation,[1],not significant
CNC(=O)[C@@H](NC(=O)[C@H](CC(C)C)NC(=O)[C@@H](S)CCN1C(=O)N(C)C(C)(C)C1=O)C(C)(C)C [BMS-275291],contraction of HTF populated collagen gels,[2],inhibition of the contraction of the gels
CNC(=O)[C@H](Cc1c[nH]c2ccccc12)NC(=O)[C@@H](CC(=O)NO)CC(C)C [IRRADIATED ILOMASTAT],Contraction (%) of HTF collagen I gels,[3]; DAY 0,0%
same,Contraction (%) of HTF collagen I gels,[3]; DAY 1,12.51%
same,Contraction (%) of HTF collagen I gels,[3]; DAY 2,23.65%
same,Contraction (%) of HTF collagen I gels,[3]; DAY 3,28.44%
same,Contraction (%) of HTF collagen I gels,[3]; DAY 4,30.8%
same,Contraction (%) of HTF collagen I gels,[3]; DAY 5,32.23%
same,Contraction (%) of HTF collagen I gels,[3]; DAY 6,33.76%
same,Contraction (%) of HTF collagen I gels,[3]; DAY 7,36.12%
same,"trace products formed after irradiation, compared to total Ilomastat","[4]; 25 kGy gamma radiation, HPLC extra peak",0.25%
O=c1[nH]cc(F)c(=O)[nH]1 [5-FU],release period,"[5]; excipient-free 5-FU tablets A, B and C averaged",25 h
same,release kinetics,"[5]; excipient-free tablets, FIGS. 9 to 13",essentially linear release of drug over a period of many hours
CNC(=O)[C@H](Cc1c[nH]c2ccccc12)NC(=O)[C@@H](CC(=O)NO)CC(C)C [NON IRRADIATED],Contraction (%) of HTF collagen I gels,[3]; DAY 0,0%
same,Contraction (%) of HTF collagen I gels,[3]; DAY 1,11.96%
same,Contraction (%) of HTF collagen I gels,[3]; DAY 2,27.19%
same,Contraction (%) of HTF collagen I gels,[3]; DAY 3,32.97%
same,Contraction (%) of HTF collagen I gels,[3]; DAY 4,39.9%
same,Contraction (%) of HTF collagen I gels,[3]; DAY 5,41.66%
same,Contraction (%) of HTF collagen I gels,[3]; DAY 6,42.03%
same,Contraction (%) of HTF collagen I gels,[3]; DAY 7,43.19%
"CNC(=O)[C@H](Cc1c[nH]c2ccccc12)NC(=O)[C@@H](CC(=O)NO)CC(C)C [Ilomastat, N-[(2R)-2-(hydroxamidocarbonylmethyl)-4-methylpentanoyl]-L tryptophan methylamide]",time for which an MMP inhibitory concentration of 10 μM is maintained,[5]; solid dosage form of about 2 to 5 mg,at least 30 days
same,concentrations inhibiting in vitro contraction in collagen I gels in a dose dependent manner,"[2]; Daniels et al. 2003, WO 95/24921",10 to 100 nM
same,contraction of HTF populated collagen gels,[2],inhibition of the contraction of the gels
same,theoretical maximum dissolution in the aqueous solution,[6],about 100 μM
same,bleb survival,[7],prolong significantly the bleb survival
same,degradation caused by gamma radiation,[4]; 25 KGys dose,not significant
CNC(=O)[C@H](Cc1c[nH]c2ccccc12)NC(=O)[C@@H](CC(=O)NO)CC(C)C [Non-Irradiated Ilomastat with DMSO],"Contraction (%) of HTF collagen I gels, Average",[3]; Day 1,19.35%
same,"Contraction (%) of HTF collagen I gels, Group 1",[3]; Day 1,13.03%
same,"Contraction (%) of HTF collagen I gels, Group 2",[3]; Day 1,19.45%
same,"Contraction (%) of HTF collagen I gels, Group 3",[3]; Day 1,20.69%
same,"Contraction (%) of HTF collagen I gels, Group 4",[3]; Day 1,24.23%
same,"Contraction (%) of HTF collagen I gels, Average",[3]; Day 2,22.63%
same,"Contraction (%) of HTF collagen I gels, Group 1",[3]; Day 2,19.75%
same,"Contraction (%) of HTF collagen I gels, Group 2",[3]; Day 2,22.77%
same,"Contraction (%) of HTF collagen I gels, Group 3",[3]; Day 2,21.37%
same,"Contraction (%) of HTF collagen I gels, Group 4",[3]; Day 2,26.63%
same,"Contraction (%) of HTF collagen I gels, Average",[3]; Day 3,23.325%
same,"Contraction (%) of HTF collagen I gels, Group 1",[3]; Day 3,20.44%
same,"Contraction (%) of HTF collagen I gels, Group 2",[3]; Day 3,24.14%
same,"Contraction (%) of HTF collagen I gels, Group 3",[3]; Day 3,21.55%
same,"Contraction (%) of HTF collagen I gels, Group 4",[3]; Day 3,27.17%
same,"Contraction (%) of HTF collagen I gels, Average",[3]; Day 4,24.14%
same,"Contraction (%) of HTF collagen I gels, Group 1",[3]; Day 4,21.15%
same,"Contraction (%) of HTF collagen I gels, Group 2",[3]; Day 4,25.19%
same,"Contraction (%) of HTF collagen I gels, Group 3",[3]; Day 4,22.11%
same,"Contraction (%) of HTF collagen I gels, Group 4",[3]; Day 4,28.11%
same,"Contraction (%) of HTF collagen I gels, Average",[3]; Day 5,25.375%
same,"Contraction (%) of HTF collagen I gels, Group 1",[3]; Day 5,23.36%
same,"Contraction (%) of HTF collagen I gels, Group 2",[3]; Day 5,25.33%
same,"Contraction (%) of HTF collagen I gels, Group 3",[3]; Day 5,22.96%
same,"Contraction (%) of HTF collagen I gels, Group 4",[3]; Day 5,29.85%
same,"Contraction (%) of HTF collagen I gels, Average",[3]; Day 6,27.6425%
same,"Contraction (%) of HTF collagen I gels, Group 1",[3]; Day 6,24.42%
same,"Contraction (%) of HTF collagen I gels, Group 2",[3]; Day 6,27.9%
same,"Contraction (%) of HTF collagen I gels, Group 3",[3]; Day 6,24.9%
same,"Contraction (%) of HTF collagen I gels, Group 4",[3]; Day 6,33.35%
same,"Contraction (%) of HTF collagen I gels, Average",[3]; Day 7,28.2525%
same,"Contraction (%) of HTF collagen I gels, Group 1",[3]; Day 7,25.07%
same,"Contraction (%) of HTF collagen I gels, Group 2",[3]; Day 7,29%
same,"Contraction (%) of HTF collagen I gels, Group 3",[3]; Day 7,24.9%
same,"Contraction (%) of HTF collagen I gels, Group 4",[3]; Day 7,34.04%
